The values below come from patent publication US12447151B2, “Alkyne derivative, preparation method for same, and uses thereof” (ZHEJIANG HISUN PHARMACEUTICAL CO., LTD., priority 2019, dated 2025).

Each structure is given as a SMILES string.

The nature of series [1]: Metabolic stability in liver microsomes. The series is classed as in vitro ADME. As to conditions: human liver microsomes 0.5 mg/mL, 1 μM compound, NADPH 1 mM; read-out: half-life period/(T1/2, min). The protocol:
The test compound was co-incubated with human liver microsomes, and coenzyme NADPH was added to initiate the reaction. At 0, 5, 15, 30 and 60 minutes, 20 μL of incubation solution was taken out and transferred to 200 μL of acetonitrile containing internal standard to stop the reaction. After protein precipitation, centrifugation was performed at 3,700 rpm for 10 minutes and the supernatant was taken. The supernatant was diluted 1:1 with water and analyzed by LC-MS/MS method. According to the elimination half-life of the test compound in the incubation system, the in vitro intrinsic clearance rate was calculated. Midazolam was used as the internal reference compound and incubated for two aliquots in parallel.
The ratio of peak area of the analyte/internal standard (Aanalyte/AIS) was obtained by the instrument. The remaining percentage (% Control) was calculated from the ratio of Aanalyte/AIS in the non-zero time point sample to the zero time point sample. Ln (% Control) versus incubation time was plotted and a linear fit was performed. The clearance constant (k, min^−1), the clearance half-life (T1/2, min) and the in vitro intrinsic clearance rate (CLint, mL·min^−1·mg^−1 proteins) of the test compound were calculated by the following equations.
Cprotein(mg·mL^−1) refers to the concentration of microsomal protein in the incubation system.

Series [2] can be described thus: Oral pharmacokinetics in ICR mice. The series is classed as in vivo. The following applies: male, mouse, plasma, Oral (5 mg/kg); for AUC(0-inf): read-out: Area under the curve AUC0-∞; for bioavailability: read-out: Bioavailability F; for Cmax: read-out: Plasma concentration Cmax. The protocol: Using ICR mice as the test animals, the mice were intragastrically administrated with the compound of the present invention. LC/MS/MS method was used to determine the drug concentration in the plasma at different times to study the pharmacokinetic characteristics of the compound of the present invention in mice.
An appropriate amount of the compound to be tested was weighed, and 0.5% sodium carboxymethylcellulose (containing 0.05% Tween80) was added. The mixture was vortexed, and sonicated so that the solid was ultrasonically dispersed uniformly to obtain a suspension; 100 μL×2 of the preparation were aspirated, and placed in 1.5-mL EP tubes, stored at 2 to 8° C. The concentration of the preparation was 0.5 mg/mL.
Twenty-seven healthy adult ICR male mice were fasted overnight and then intragastrically administered (dosage of administration was 5 mg/kg), and fed 4 hours after administration.
At 0.083 hours, 0.25 hours, 0.5 hours, 1 hour, 2 hours, 4 hours, 8 hours, 12 hours, and 24 hours after administration, 80 μL of blood was collected from the orbital vein. About 0.08 mL of blood was collected, and placed in EDTA-K2 anticoagulation tube. […] The collected plasma was stored at −40 to −20° C. before analysis. The […] method was used to determine the content of the test compound in the plasma of ICR mice after intragastric administration of different compounds.

The nature of series [3]: Oral pharmacokinetics in SD rats. The series is classed as in vivo. As to conditions: male, rat, plasma, Oral (5 mg/kg); for AUC(0-inf): read-out: Area under the curve AUC0-∞; for bioavailability: read-out: Bioavailability F; for half-life: read-out: Half-life period T1/2 (converted); for Cmax: read-out: Plasma concentration Cmax. The protocol: Using SD rats as test animals, the rats were intragastrically administrated with the compound of the present invention. LC/MS/MS method was used to determine the drug concentration in the plasma at different times to study the pharmacokinetic characteristics of the compound of the present invention in rats.
An appropriate amount of the compound to be tested was weighed, and 0.5% sodium carboxymethylcellulose (containing 0.05% Tween80) was added. The mixture was vortexed, and sonicated so that the solid was ultrasonically dispersed uniformly to obtain a suspension. 100 μL×2 of the filtered preparation were aspirated, and placed in 1.5-mL EP tubes, stored at […]. The concentration of the preparation was 0.5 mg/mL.
Nine healthy adult male SD rats were fasted overnight and then intragastrically administered (dosage of administration was 5 mg/kg), and fed 4 hours after administration.
About 0.2 mL of blood was collected from the jugular vein at 0.083 hours, 0.25 hours, 0.5 hours, 1 hour, 2 hours, 4 hours, 8 hours, 12 hours, and 24 hours after administration, and heparin sodium was used for anticoagulation. The collected blood samples were placed on ice and centrifuged to separate the plasma (centrifugation conditions: 1500 g, 10 minutes). The collected plasma was stored at −40 to −20° C. before analysis. The LC-MS/MS method was used to determine the content of the test compound in the plasma of SD rats after intragastric administration of different compounds.

A further series addresses recombinant human PI3Kβ (Homo sapiens (Human), UniProt P42338). Nature of the series: Inhibitory activity on PI3K kinase (ADP-Glo Kinase Assay).
Another series concerns the target recombinant human PI3Kα (Homo sapiens (Human), UniProt P42336). The series is described as above.
The target of another series is recombinant human PI3Kδ (Homo sapiens (Human), UniProt O00329). The description is as above.
Another series addresses recombinant human PI3Kγ (Homo sapiens (Human), UniProt P48736). The series is described as above. The series is classed as biochemical. The following applies: for IC50: ADP-Glo, ATP 10 μM. From the text:
The following method is used to determine the degree of inhibition of recombinant human PI3Kα, PI3Kβ, PI3Kγ and PI3Kδ kinase activity by the compounds of the present invention under in vitro conditions. Promega's ADP-Glo Kinase Assay Kit (Cat. No. V9102) was used in this method. The above kit was a luminescence kinase detection kit, which was used to detect the ADP content produced by the kinase reaction. The ADP content was positively correlated with the kinase activity. By measuring the ADP content, the inhibition of the compound on the activity of PI3Kα, PI3Kβ, PI3Kγ and PI3Kδ kinases was reflected. For detailed experimental operations, please refer to the kit instructions. Recombinant human PI3Kα, PI3Kγ, and PI3Kδ were purchased from Invitrogen, and PI3Kβ was purchased from Promega (category numbers were PI3Kα: PV4788; PI3Kβ: V1751; PI3Kγ: PV4786 and PI3Kδ: PV6451 separately).

Sequence of recombinant human PI3Kγ (P48736 whole entry): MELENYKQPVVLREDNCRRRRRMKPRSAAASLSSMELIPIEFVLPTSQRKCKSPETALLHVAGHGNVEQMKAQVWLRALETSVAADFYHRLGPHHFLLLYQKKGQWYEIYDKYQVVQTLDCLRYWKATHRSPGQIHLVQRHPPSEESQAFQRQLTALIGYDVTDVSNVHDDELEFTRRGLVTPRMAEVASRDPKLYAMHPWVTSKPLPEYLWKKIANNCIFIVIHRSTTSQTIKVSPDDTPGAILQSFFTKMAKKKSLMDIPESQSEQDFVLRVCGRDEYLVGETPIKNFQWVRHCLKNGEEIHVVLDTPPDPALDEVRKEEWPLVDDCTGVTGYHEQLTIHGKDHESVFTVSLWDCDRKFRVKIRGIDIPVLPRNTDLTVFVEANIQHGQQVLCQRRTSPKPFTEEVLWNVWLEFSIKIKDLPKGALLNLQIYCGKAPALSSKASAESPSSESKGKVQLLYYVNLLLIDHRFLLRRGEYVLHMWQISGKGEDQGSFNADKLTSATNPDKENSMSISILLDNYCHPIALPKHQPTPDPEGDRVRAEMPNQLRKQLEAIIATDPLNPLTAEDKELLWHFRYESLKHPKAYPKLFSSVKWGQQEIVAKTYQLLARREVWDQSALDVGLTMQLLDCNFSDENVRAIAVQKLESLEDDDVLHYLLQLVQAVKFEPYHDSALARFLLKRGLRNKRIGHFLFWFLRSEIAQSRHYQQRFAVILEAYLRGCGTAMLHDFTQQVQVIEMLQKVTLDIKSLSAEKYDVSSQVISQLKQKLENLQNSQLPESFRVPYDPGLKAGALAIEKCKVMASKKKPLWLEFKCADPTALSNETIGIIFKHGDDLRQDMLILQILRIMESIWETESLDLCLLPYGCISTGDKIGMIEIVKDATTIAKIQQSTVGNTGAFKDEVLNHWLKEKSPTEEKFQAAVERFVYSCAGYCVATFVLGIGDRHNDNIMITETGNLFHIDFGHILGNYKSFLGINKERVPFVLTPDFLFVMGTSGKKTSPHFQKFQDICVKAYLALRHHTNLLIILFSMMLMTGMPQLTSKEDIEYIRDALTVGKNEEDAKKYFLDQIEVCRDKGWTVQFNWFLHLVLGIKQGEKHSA
Sequence of recombinant human PI3Kβ (P42338 whole entry): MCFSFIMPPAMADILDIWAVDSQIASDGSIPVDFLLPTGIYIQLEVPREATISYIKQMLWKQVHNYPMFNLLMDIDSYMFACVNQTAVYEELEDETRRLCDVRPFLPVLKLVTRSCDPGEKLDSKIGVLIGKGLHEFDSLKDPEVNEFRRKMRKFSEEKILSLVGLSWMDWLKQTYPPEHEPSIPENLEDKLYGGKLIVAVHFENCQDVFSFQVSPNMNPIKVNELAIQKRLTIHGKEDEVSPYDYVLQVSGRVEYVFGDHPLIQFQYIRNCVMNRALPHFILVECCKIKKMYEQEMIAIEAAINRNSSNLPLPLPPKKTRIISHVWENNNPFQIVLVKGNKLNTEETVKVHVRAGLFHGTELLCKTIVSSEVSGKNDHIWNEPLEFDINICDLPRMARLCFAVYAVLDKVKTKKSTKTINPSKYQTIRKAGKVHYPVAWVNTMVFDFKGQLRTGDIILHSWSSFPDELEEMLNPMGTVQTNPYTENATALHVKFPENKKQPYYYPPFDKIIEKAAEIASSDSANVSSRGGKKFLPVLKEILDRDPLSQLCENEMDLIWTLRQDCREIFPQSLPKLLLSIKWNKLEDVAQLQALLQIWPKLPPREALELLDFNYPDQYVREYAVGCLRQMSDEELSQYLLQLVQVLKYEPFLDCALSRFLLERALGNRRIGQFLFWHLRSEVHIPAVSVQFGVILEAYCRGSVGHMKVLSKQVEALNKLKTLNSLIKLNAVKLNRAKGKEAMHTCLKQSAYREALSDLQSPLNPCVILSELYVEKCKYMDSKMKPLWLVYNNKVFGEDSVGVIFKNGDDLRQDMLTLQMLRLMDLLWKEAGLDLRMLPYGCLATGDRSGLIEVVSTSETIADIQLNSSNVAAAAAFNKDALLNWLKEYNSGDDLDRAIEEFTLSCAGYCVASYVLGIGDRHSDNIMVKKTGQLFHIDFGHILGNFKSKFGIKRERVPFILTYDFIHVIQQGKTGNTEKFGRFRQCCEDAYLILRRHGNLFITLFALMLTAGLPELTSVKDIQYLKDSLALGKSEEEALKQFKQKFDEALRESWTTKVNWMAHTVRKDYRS
Sequence of recombinant human PI3Kβ (P27986 whole entry partner): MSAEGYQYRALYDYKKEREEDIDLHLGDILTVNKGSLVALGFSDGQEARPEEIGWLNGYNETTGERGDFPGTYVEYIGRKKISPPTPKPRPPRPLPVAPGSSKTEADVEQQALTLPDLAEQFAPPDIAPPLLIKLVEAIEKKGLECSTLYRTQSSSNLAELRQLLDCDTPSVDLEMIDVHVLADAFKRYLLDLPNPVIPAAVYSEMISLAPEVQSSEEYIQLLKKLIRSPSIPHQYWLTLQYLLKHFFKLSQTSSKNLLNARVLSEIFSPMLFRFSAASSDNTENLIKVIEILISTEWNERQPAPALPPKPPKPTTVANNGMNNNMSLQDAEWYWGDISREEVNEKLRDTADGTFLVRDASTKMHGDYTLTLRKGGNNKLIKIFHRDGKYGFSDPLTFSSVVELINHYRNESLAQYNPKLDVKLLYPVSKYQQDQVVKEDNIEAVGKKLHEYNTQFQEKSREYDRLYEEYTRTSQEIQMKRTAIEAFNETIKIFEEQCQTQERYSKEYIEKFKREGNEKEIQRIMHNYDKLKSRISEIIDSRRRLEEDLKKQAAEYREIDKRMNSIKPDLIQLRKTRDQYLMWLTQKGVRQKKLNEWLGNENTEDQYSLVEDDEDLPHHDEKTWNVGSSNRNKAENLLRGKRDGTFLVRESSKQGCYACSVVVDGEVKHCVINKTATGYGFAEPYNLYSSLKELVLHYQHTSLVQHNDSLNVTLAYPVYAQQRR
Sequence of recombinant human PI3Kδ (O00329 whole entry): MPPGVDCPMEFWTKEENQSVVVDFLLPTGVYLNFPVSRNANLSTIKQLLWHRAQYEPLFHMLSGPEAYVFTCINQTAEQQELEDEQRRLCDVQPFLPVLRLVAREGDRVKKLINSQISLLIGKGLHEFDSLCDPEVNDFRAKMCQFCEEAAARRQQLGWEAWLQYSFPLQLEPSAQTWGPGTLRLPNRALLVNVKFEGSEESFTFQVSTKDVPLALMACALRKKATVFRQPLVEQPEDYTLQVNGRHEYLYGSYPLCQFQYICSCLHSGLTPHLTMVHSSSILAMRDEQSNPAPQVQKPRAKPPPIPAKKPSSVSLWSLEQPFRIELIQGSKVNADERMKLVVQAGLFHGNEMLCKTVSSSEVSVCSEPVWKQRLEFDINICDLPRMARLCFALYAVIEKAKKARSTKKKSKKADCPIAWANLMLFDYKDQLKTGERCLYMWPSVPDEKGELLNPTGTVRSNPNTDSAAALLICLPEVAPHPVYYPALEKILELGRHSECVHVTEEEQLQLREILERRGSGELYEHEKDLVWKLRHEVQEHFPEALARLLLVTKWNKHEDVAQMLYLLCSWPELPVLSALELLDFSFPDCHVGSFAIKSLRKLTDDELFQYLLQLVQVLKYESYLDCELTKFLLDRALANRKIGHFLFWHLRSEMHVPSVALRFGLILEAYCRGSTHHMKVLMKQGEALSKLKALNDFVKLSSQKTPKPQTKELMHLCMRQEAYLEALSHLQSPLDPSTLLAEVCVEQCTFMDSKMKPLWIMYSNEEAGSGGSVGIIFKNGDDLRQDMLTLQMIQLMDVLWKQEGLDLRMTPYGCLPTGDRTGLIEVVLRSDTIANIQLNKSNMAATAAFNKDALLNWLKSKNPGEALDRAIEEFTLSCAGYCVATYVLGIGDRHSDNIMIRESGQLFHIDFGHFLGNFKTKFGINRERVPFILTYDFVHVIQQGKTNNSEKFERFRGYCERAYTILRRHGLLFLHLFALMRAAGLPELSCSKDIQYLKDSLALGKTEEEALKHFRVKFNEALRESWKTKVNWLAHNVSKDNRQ
Sequence of recombinant human PI3Kδ (P27986 whole entry partner): as the sequence (P27986 whole entry partner) above
Sequence of recombinant human PI3Kα (P42336 whole entry): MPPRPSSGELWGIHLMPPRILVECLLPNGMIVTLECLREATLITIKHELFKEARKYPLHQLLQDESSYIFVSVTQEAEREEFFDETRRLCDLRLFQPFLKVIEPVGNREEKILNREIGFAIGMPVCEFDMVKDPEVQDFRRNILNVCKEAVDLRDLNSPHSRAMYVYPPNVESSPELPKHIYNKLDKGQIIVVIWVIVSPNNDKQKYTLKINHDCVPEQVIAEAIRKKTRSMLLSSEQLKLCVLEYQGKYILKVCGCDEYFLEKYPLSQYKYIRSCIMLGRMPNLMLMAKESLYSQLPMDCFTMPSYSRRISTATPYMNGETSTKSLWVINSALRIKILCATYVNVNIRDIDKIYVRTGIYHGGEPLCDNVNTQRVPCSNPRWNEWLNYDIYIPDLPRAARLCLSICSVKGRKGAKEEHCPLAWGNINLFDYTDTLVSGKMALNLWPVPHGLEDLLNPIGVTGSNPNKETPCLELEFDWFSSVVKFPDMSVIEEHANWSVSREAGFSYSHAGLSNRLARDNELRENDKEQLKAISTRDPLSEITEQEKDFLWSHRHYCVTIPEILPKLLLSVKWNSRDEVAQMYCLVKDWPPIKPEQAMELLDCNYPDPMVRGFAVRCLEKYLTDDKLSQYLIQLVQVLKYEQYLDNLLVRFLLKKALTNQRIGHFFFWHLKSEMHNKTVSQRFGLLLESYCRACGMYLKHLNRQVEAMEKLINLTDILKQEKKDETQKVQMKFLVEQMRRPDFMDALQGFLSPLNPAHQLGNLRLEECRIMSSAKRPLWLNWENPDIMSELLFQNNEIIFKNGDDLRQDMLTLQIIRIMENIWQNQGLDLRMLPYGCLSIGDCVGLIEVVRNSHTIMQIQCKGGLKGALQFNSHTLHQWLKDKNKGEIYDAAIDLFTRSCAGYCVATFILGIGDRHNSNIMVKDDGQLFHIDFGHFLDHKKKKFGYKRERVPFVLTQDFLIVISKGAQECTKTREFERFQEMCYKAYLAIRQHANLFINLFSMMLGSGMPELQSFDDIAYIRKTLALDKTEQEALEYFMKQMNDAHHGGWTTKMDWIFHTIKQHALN
Sequence of recombinant human PI3Kα (P27986 whole entry partner): as the sequence (P27986 whole entry partner) above
Text for recombinant human PI3Kα: (§1) The following method is used to determine the degree of inhibition of recombinant human PI3Kα, PI3Kβ, PI3Kγ and PI3Kδ kinase activity by the compounds of the present invention under in vitro conditions. Promega's ADP-Glo Kinase Assay Kit (Cat. No. V9102) was used in this method. The above kit was a luminescence kinase detection kit, which was used to detect the ADP content produced by the kinase reaction. The ADP content was positively correlated with the kinase activity. By measuring the ADP content, the inhibition of the compound on the activity of PI3Kα, PI3Kβ, PI3Kγ and PI3Kδ kinases was reflected. […] Recombinant human PI3Kα, PI3Kγ, and PI3Kδ were purchased from Invitrogen, and PI3Kβ was purchased from Promega (category numbers were PI3Kα: PV4788; PI3Kβ: V1751; PI3Kγ: PV4786 and PI3Kδ: PV6451 separately).
Text for recombinant human PI3Kβ: as §1
Text for recombinant human PI3Kδ: as §1

With `C[C@H](NC(=O)c1c(N)nn2cccnc12)c1nc2cccc(C#Cc3cnn(C)c3)c2c(=O)n1-c1ccccc1` [Compound 21 in WO2015051244A1, reference compound], the half-life at 1 μM in series [1] is 113 min.

`C[C@H](NC(=O)c1c(N)nn2cccnc12)c1cc2cccc(C#Cc3cnn(C4CC4)c3)c2c(=O)n1-c1ccccc1` [Example 1, (S)-2-amino-N-(1-(8-((1-cyclopropyl-1H-pyrazol-4-yl)ethynyl)-1-oxo-2-phenyl-1,2-dihydroisoquinolin-3-yl)ethyl)pyrazolo[1,5-a]pyrimidine-3-carboxamide]: the AUC(0-inf) in series [2] came out at 7470 ng·h/mL; in series [3], 3940 ng·h/mL. The bioavailability worked out at 33% in series [2] and 27% in series [3]. The values for the half-life in series [2] (read-out: Half-life period T½ (converted)) and in series [3] were 3.1 h and 5.1 h, respectively. Moreover, the Cmax in series [2] came out at 898 ng/mL; in series [3], 587 ng/mL. Also, the IC50 turned out to be 237 nM on recombinant human PI3Kβ, 101 nM on recombinant human PI3Kα, 461 nM at recombinant human PI3Kδ and 0.46 nM on recombinant human PI3Kγ. The half-life at 1 μM in series [1] was 11700 min. For the same compound, the “IC50 (PI3Kα)/IC50(PI3Kγ)” value on recombinant human PI3Kγ (kinase selectivity for PI3Kγ over PI3Kα) was determined as 220. Further, the “IC50 (PI3Kβ)/IC50(PI3Kγ)” value on recombinant human PI3Kγ (kinase selectivity for PI3Kγ over PI3Kβ) came out at 515. The “IC50 (PI3Kδ)/IC50(PI3Kγ)” value on recombinant human PI3Kγ (kinase selectivity for PI3Kγ over PI3Kδ) was found to be 1002.

Turning to `C[C@H](NC(=O)c1c(N)nn2cccnc12)c1nc2ccc(F)c(C#Cc3cnn(C4CC4)c3)c2c(=O)n1-c1ccccc1` [Example 3, (S)-2-amino-N-(1-(5-((1-cyclopropyl-1H-pyrazol-4-yl)ethynyl)-6-fluoro-4-oxo-3-phenyl-3,4-dihydroquinazolin-2-yl)ethyl)pyrazolo[1,5-a]pyrimidine-3-carboxamide], the IC50 was 552 nM at recombinant human PI3Kβ, 143 nM at recombinant human PI3Kα, 195 nM on recombinant human PI3Kδ and 0.7 nM at recombinant human PI3Kγ. In series [1], the half-life at 1 μM was determined as 574 min.

In the case of `C[C@H](NC(=O)c1c(N)nn2cccnc12)c1cc2cccc(C#Cc3cnn(C)c3)c2c(=O)n1-c1ccccc1` [IPI-549, reference compound], in series [2], the AUC(0-inf) worked out at 2660 ng·h/mL, the bioavailability is 20% and the Cmax was found to be 484 ng/mL. Also, in series [3], the AUC(0-inf) worked out at 1950 ng·h/mL, the bioavailability is 10%, the half-life is 2.4 h and the Cmax stood at 358 ng/mL. Moreover, the half-life at 1 μM in series [1] was 195 min.
